Results on 5 compounds are retold here after article PMC4728560 (Scientific Reports, 2016).

Experiment [1] concerns the target T1, Bcl-xL (Homo sapiens, UniProt Q07817, DEL27-82).
T1 construct: one containing the fragment 1-26, and the other the fragment 81-209; 6His (N, cleaved yes); made in house; host or cells: Escherichia coli BL21 (DE3) pRARE2
Kind of experiment: Heterocomplex formation with Bcl-xL (native MS, SEC-MALS, gel filtration). The class given is binding. The settings on record: native MS: Bcl-xL(Δ27-81ΔCT), equimolar 100 μM, 30 °C, checked at 5 μM (for TCTP-R21A). As to the method:
When not specified, proteins tested for binding experiments were mixed at 100 μM, dialyzed against 10 mM CHES pH 9, 50 mM NaCl, 1 mM DTT or TCEP, depending on the analysis, and heated overnight at 30 °C.
For binding experiments, 100 to 200PL of protein mixture were loaded on a size exclusion chromatography (S200, GE Healthcare) column, while elution profiles were measured by UV absorption at 280 nm.
SEC-MALS experiments were performed on a multi-angle light scattering detector (miniDAWN TREOS, Wyatt Technologies) coupled in-line with SEC and an interferometric refractometer (Optilab T-rEX, Wyatt Technologies). See Supplementary Information for full details.
Prior to any mass spectrometry experiment, protein buffer was exchanged twice against a 50 mM ammonium acetate (NH4Ac) solution at pH 9.0 using microcentrifuge gel filtration columns (Zeba 0.5 ml, Thermo Scientific, Rockford, IL). Protein concentration was determined spectrophotometrically. […]
Supplementary Table 1. Measured molecular weights in denaturing conditions Sample Theoretical molecular Measured molecular Associated mass (Da) mass (Da) species […]
Gel filtration. For binding experiments, 100 to 200PL of protein mixture were loaded on a size exclusion chromatography (S200, GE Healthcare) column, while elution profiles were measured by UV absorption at 280nm. […]

Experiment [2] has as its system Bcl-xL. The experiment in a line: In cellulo BRET between Luciferase-fused TCTP and YFP-fused Bcl-xL. The class given is cell-based. The settings on record: MCF-7 cells; 16 h treatment. From the text: See Supplementary Information for full details.
Twenty-four hours later, cells
Protein expression and purification
A general note: Bioluminescence resonance energy transfer reports proximity on the nanometre scale.

Experiment [3] deals with T1, Bcl-xL. The experiment in a line: Isothermal Titration Calorimetry, peptides and Bcl-xL. Format: binding. The settings on record: ITC, 30 °C, 50 mM ammonium bicarbonate pH 9, TCTP-BH3-R21A 1.26 mM (Fig. 1B). As for the experimental part:
In red, the conserved hydrophobic residues of the BH3 domain (named h1 (P1), h2 (P2), h3 (P3) and h4 (P4)). In green, the GD signature of BH3 domains. In blue, the conserved charged residues. […] Each experiment was carried out at 30 °C in 50 mM ammonium bicarbonate pH 9.
Titrations were done by isothermal titration calorimetry (ITC) assays using an ITC200 calorimeter from GE-Microcal. See Supplementary Information for full details. […]
hybrid-FLAG peptides, rabbit anti-FLAG (Sigma) and anti-rabbit-FITC (Abcam) were used.
Isothermal Titration Calorimetry experiments
Titrations were done by isothermal titration calorimetry (ITC) assays using an ITC200 calorimeter from GE-Microcal. Bcl-xL was used at 0.065 mM in 50mM bicarbonate ammonium […]
pH 9. […] Titrations were carried out at 30°C. Data were analyzed using Microcal Origin software provided by the ITC manufacturer (GE-Microcal).
High-throughput crystallization screening was performed using a Mosquito liquid transfer robot (TTP Labtech) and the sitting-drop vapor diffusion method. Crystals were obtained at 20°C by mixing 0.2μL of reservoir solution (100mM Pipes pH 7, 1.5M Tris-sodium citrate) with 0.2μL of […]
ammonium bicarbonate pH 9.3 and by equilibrating the mixture against 40μl of reservoir
In general terms: Isothermal titration calorimetry measures the heat released or taken up as one component is titrated into another.

For experiment [4], the system named is Bax mediated cytochrome c release, Bcl-xL. Kind of experiment: Cytochrome c release from purified mitochondria by tBid and Bax in the presence of Bcl-xL. The settings on record: mouse liver mitochondria; 5 nM tBid, 50 nM Bax, 300 nM Bcl-xL; 15 min, 30 °C; Western blot. Format: biochemical. As for the experimental part: (A–E) in vitro reconstitution assay on liposome permeabilization. […] The treated Bcl-xL was then added to reactions containing ANTS-DPX liposomes, 100 nM Bax and 20 nM of either cBid (A,B) or cBidmt1(C,D) at pH 7. Liposome permeabilization was quantified by fluorescence after 5h incubation at 37 °C where 100% release was defined as the fluorescence change due to lipid solubilization with 1% Triton X-100. […] Error bars, std. dev. n = 3. To compare between the TCTP treated groups and the Control group statistically, two-way ANOVA test was performed for (A–D) and one-way ANOVA test was performed for (E). […] Colored asterisks above each data point indicate the statistical significance (*p < 0.05; **p < 0.01, no asterisks if p ≥ 0.05). A complete statistical analysis is provided in Supplementary Table 2–4. […] Cyto c extra-mito: in the supernatant, analysed by Western blot. […]
to highlight the pre-incubation), pH 9, 30 C° before being added to the mitochondria at their final concentrations. […] Cytochrome c was detected in the mitochondrial fraction (Cyto c intra-mito) or in the supernatant (Cyto c extra-mito) by Western blot analysis. […]
Cytochrome c release assay. […] Mitochondrial pellets and the corresponding supernatant fractions were subjected to SDS-polyacrylamide gel electrophoresis and analyzed by Western blotting for cytochrome c.
A general note: Immunoblotting shows a protein as a band on a membrane.

Experiment [5] concerns thymocytes from TCTP^+/− mice. Kind of experiment: Complementation (viability) of γ-irradiated TCTP+/− thymocytes. The settings on record: γ-irradiation 2.5 Gy, overnight culture, 0 to 1000 nM. Format: cell-based, mouse. From the text: Figure 4 Molecular/functional analysis of the h1 (P1) subregion of BH3-TCTP. […]
Peptides used for in vitro assays:
WT-TCTP (11-31): […]
R21A-TCTP (11-31): […]
Hybrid Bax/TCTP: […]
Peptides used for in vivo assays:
WT-TCTP (1-31) : […]
Hybrid Bax-TCTP: […]
TCTP-FLAG peptides used for in vivo assays:
WT-TCTP (1-31)-FLAG : […] DYKDDDDK-OH
TCTP-Bax-TCTP-FLAG: […]-OH […]
subdomain in the BH3 motif is underlined. Peptides were purchased from Smartox […]
Complementation and transduction experiments
In order to complement the haploinsufficient TCTP+/- mice with exogenous TCTP, we took advantage of the fact that the first N-terminal fragment of TCTP functions as a Protein Transduction Domain (PTD), enabling TCTP to penetrate into the cell by a mechanism hitherto […]
not well understood23,27-29. […]
of γ irradiation) and cultured, at a concentration of 10^7 cells/ml, overnight in the presence of […]
20) at concentrations ranging from 0-1000nM. For the transduction assays using WT-TCTP- […]
concentrations were 10 microM, 50 microM and 100 microM.
γ-irradiated thymocytes were fixed by adding 500ul of PFA 4% and incubated for 20 min at room temperature. The cells were washed twice with PBS and permeabilized for 10 min with 0.2% triton X-100 in PBS at room temp. The cells were washed twice with PBS. Proteins were blocked in Blocking buffer (1% BSA 0.5% Tween in PBS) 1h at room temperature. The primary antibody was added with blocking buffer and placed in a rotating wheel overnight in a cold room.
Cells were then washed 3 times with PBS and incubated with secondary antibody with blocking buffer 1h at room temperature. The cells were washed 3 times with PBS and suspended in 200 µL PBS and used for Flow Cytometry or further used for immunohistochemistry: 5 µl of each sample were mixed with 5 µl of ProLong® Gold antifade reagent (Life Technologies) and visualized, using the IX73 inverted fluorescence microscope and the cellSens™ Dimension […]
FACS analysis (BD Accuri™ C6 Cytometer (BD Biosciences) of incorporation of exogenous

T1 sequence (Q07817 with tags, fused parts or gaps DEL27-82): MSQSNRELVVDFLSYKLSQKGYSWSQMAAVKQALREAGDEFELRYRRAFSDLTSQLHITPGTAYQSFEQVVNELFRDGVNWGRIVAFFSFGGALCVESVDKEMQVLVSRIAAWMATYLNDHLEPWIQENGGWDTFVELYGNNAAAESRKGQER

As to `CN(C)CC[C@H](CSc1ccccc1)Nc1ccc(S(=O)(=O)NC(=O)c2ccc(N3CCN(Cc4ccccc4-c4ccc(Cl)cc4)CC3)cc2)cc1[N+](=O)[O-]` [ABT-737, reference compound], the “complex formation with Bcl-xL” value in experiment [1] is listed as “abrogated formation of the TCTP/Bcl-xL complexes”. The “inhibition of BRET signals between TCTP and Bcl-xL” value in experiment [2] is recorded as “significantly inhibited”.
Consider “DEMFSDIYKIAEIADGLCLEV [TCTP11–31-R21A, R21A mutant of TCTP11–31 peptide]”, for which the “binding to Bcl-xL” value in experiment [3] is “does not bind to Bcl-xL”.
For the compound “MIIYRDLISHDEMFSDIYKI [TCTP1–20, truncated TCTP peptide]”, the “potentiation of Bcl-xL (cytochrome c release)” value in experiment [4] was “do not potentiate Bcl-xL”.
As to “MIIYRDLISHDEMFSDIYKIREIADGLCLEV [TCTP1–31]”, the “rescue of TCTP+/− haploinsufficient phenotype / anti-apoptotic function” value in experiment [5] was “rescue completely the TCTP^+/− haploinsufficient phenotype”.
Take “MIIYRDLISHDEMKKLSECIREIADGLCLEV [hybrid mutant]”: the “rescue of TCTP+/− haploinsufficient phenotype / anti-apoptotic function” value in experiment [5] is reported as “not able anymore to rescue the haploinsufficient phenotype”; in experiment [5] (listed as hybrid Bax(h1)-TCTP), “completely abrogated its anti-apoptotic function”.
